Values after ≈ are worked out from the molar mass of the structure shown. Like-named read-outs stand apart in the source and are kept apart here.
What was measured:
[1] = LogD7.4; type: physicochemical; conditions: pH 7.4
Excerpt: (§1) The DMPK data used for triaging compounds, including LogD7.4, aqueous solubility, plasma protein binding, microsome and hepatocyte clearance measurements, were generated using the standard AstraZeneca UK high-throughput platform[37],[38].

[2] = Aqueous solubility in pH 7.4 PBS; type: physicochemical; conditions: for solubility: PBS pH 7.4, aqueous buffer, pH 7.4 PBS, read-out: Aqueous solubility in pH7.4 PBS
Excerpt: as §1

[3] = Human microsome clearance; type: in vitro ADME; conditions: for microsomal CLint: human microsomes
Excerpt: as §1

[4] = Rat hepatocyte clearance; type: in vitro ADME
Excerpt: as §1

[5] = tested on: Wolbachia in C6/36 (wAlbB) cells; test: Confirmatory re-assessment in the insect cell screen (cell assay EC50); type: cell-based, Wolbachia pipientis wAlbB (in Aedes albopictus C6/36 cells); conditions: insect cell screen, re-sourced or re-synthesised samples
Excerpt: To further validate the hit molecules from these 9 clusters, samples were sourced either from the AstraZeneca compound inventory or through re-synthesis. All 18 samples were characterised by nuclear magnetic resonance (NMR) and mass spectroscopy to confirm their chemical structures and by HPLC/LCMS to establish their purity (Supplementary Table 5 and Supplementary Data 1). These samples were also subject to confirmatory re-assessment in both the insect cell screen and Mf assays for anti-Wolbachia potency alongside confirmation of DMPK properties (LogD7.4, aqueous solubility in pH 7.4 PBS, human microsomal turnover, rat hepatocyte turnover and human plasma protein binding) (Fig. 4, Supplementary Figure 1 and Supplementary Table 4).
(§2) On day 0, a single cryovial was recovered and the cells washed before being transferred to a T225 cm^2 flask. After a 7-day recovery Wolbachia infection level (quality control (QC)) was checked by SYTO®11 DNA staining of both the host cell nuclei and intracellular Wolbachia. The end-point read out from the Operetta® high content imaging system (Perkin Elmer) was the percentage of cells infected with Wolbachia. This was obtained from cytoplasm texture analysis by the associated Harmony® software. Cells with a >50% of the population infected with Wolbachia were classed as having a good Wolbachia level and therefore used for screening through addition of 2000 cells per well into assay ready 384-well plates containing the test compounds. […] Each plate included on-board controls; vehicle/DMSO (total/maximum Wolbachia signal) or doxycycline 5 µM (null/minimum Wolbachia signal), resulting in single shot screening of 352 compounds per plate for the primary screen. […] QC plates were also created including full columns of the following controls; DMSO (total/max), 5 μM doxycycline (null/min), as well as 50 nM doxycycline (reference/medium Wolbachia signal). Daily batches contained ~150 compound plates in addition to the QC plates. Each compound plate was foil sealed before incubation for 7 days at 26 °C, 95% humidity and atmospheric air.

[6] = tested on: Wolbachia in C6/36 (wAlbB) cells; test: Secondary concentration response HTS (IC50) anti-Wolbachia screen in C6/36 (wAlbB) insect cells; type: cell-based, Wolbachia pipientis wAlbB (in Aedes albopictus C6/36 cells); conditions: 7-day incubation, 10-point concentration range
Description: Initially C6/36 (wAlbB) cells (insect cells stably infected with the Wolbachia target) from a single cryopreserved batch were recovered over 7 days prior to plating into 384-well assay ready plates (containing the test compounds), using a semi-automated process allowing for daily batches of ~150 plates, set up 4 days per week for 8 weeks. After a 7-day incubation period with the test compounds the plates were moved into the second fully automated stage (using the Agilent Technologies BioCel system) involving formaldehyde fixation, DNA staining of the insect cell nuclei (Hoechst) for toxicity analysis and antibody staining specific to the intracellular Wolbachia (wBmPAL primary antibody and far-red secondary antibody). In the final stage the fixed and stained plates from stage 2 were processed through automated data acquisition (High Res Biosolutions system, incorporating EnVision™ and acumen® plate readers). This industry standardised assay was then used to screen AstraZeneca’s full library of 1.3 million compounds within 10 weeks. In total this HTS included 30 × 3 week assays covering 3835 × 384-well plates. This primary HTS generated 20,255 hits defined as >80% reduction in Wolbachia with <60% toxicity to the host insect cell (eliminating false positives). This represents an overall hit rate of 1.56%. These compounds are depicted in chemical space in Fig. 2 (black points)[21].
The mosquito (Aedes albopictus) derived cell line C6/36 (ATCC® CRL 1660), stably infected with Wolbachia pipientis wAlbB (C6/36(wAlbB)), was maintained in Leibovitz L15 medium containing 2 mM L-glutamine, 1% nonessential amino acids, 2% tryptose phosphate broth and 20% heat-inactivated foetal bovine serum (FBS) at 26 °C[18]. This screen exclusively used cells from the large-scale cryopreserved batch produced as part of this campaign by culturing the cells at scale before cryopreservation (90% FBS and 10% DMSO). This produced a cell bank of 190 × 1 ml cryovials containing 3 × 10^7 cells per vial.
as §2
After 7 days of drug incubation, the plates were loaded into the fully automated BioCel system which performed the following additions; fixation and DNA staining (1.8% formaldehyde + 0.6 µg/ml Hoechst 33342, 20 min), permeabilisation (80 μl of PBS + 0.25% Triton-X 100, 30 min), blocking (PBS + 6% BSA, 40 min), overnight incubation in the Wolbachia-specific anti-wBmPAL primary antibody[34] […]

[7] = Human plasma protein binding; type: in vitro ADME; conditions: for fraction unbound: plasma
Excerpt: as §1

[8] = tested on: THP-1 cells; test: Mammalian cell viability counter-screen (CellTiter-Blue); type: cell-based, human; conditions: 48 h, read-out: HTS IC50 mammalian toxicity
Description: The human monocytic THP-1 cell line (ATCC® TIB-202) used for mammalian cytotoxicity evaluation was routinely cultured in roller bottles. Growth media consisted of RPMI 1640 supplemented with 10% FBS and 2 mM L-glutamine. Cells were maintained at 37 °C with 95% humidity in 5% CO2 in a shaking incubator.
All compounds selected for secondary IC50 screen were tested in parallel for mammalian cell viability using the CellTiter-Blue® Cell Viability Assay. THP1 cells were removed from culture and plated at 1 × 10^4 cells/well (40 µl) into 384-well assay ready plates and incubated at 37 °C, 5% CO2 for 48 h at 95% humidity. After the addition of CellTiter-Blue Viability reagent (8 µl of a 1:6 dilution) the assay plates were incubated for a further 2 h before fluorescence detected using a PerkinElmer EnVision™ plate reader.

[9] = tested on: Wolbachia within Brugia malayi Mf; test: B. malayi microfilarial (Mf) in vitro anti-Wolbachia assay (wsp:gst qPCR); type: cell-based; conditions: for EC50: B. malayi Mf, 6 days, read-out: Mf EC50
Description: The Mf were obtained by peritoneal lavage, using a catheter, of gerbils (Meriones unguiculatus) harbouring a patent infection of B. malayi. Mf were purified using a PD-10 desalting column (Fisher), centrifuged (311 RCF for 5 min at room temperature) before the addition of 8000 Mf/well of a 96-well plate (100 µl per well) in complete media consisting of RPMI supplemented with 10% FBS, 1% penicillin streptomycin and 1% amphotericin B. […] Each plate contained doxycycline (5 µM) and DMSO controls. After incubation at 37 °C for 6 days in 5% CO2, visual assessment of Mf motility was performed and scored from 0 to 4 per well (where 0 = no movement and 4 = highly motile). DNA extraction per sample was performed using the QIAmp DNA Mini Kit before quantitative PCR was performed to obtain the ratio of Wolbachia Surface Protein gene copy number (wsp) to Glutathione S-Transferase gene copy number (gst)[36]. The DNA was amplified using the primers as indicated in Supplementary Table 6.
The wsp:gst ratio data allowed for normalisation of the Wolbachia level to the Mf biomass for each well. The change in wsp:gst for each compound compared to the DMSO control was calculated before normalisation to the onboard doxycycline control to allow for inter-assay comparison.

logD [1] | solubility [2] | microsomal CLint ([3]; human) | Rat hepatocytes CLint [4] | fraction unbound [7] | EC50 ([9]; Brugia malayi, 144 h) | Solubility (in words) [2] | Human microsomal stability (in words) [3] | Metabolic stability (in words) ([3]; in vitro, system not given) | LogD 7.4 [1] | Human microsome CLint ([3]; human, microsomes) | Human plasma protein binding [7] | EC50 [9] | Compound | EC50 ([5]; Wolbachia, C6/36) | IC50 ([6]; Wolbachia, 168 h) | IC50 ([8]; Homo sapiens) | Mf in vitro potency (in words) [9] | EC50 [5] | IC50 [6] | IC50 [8]
3.7 | 397 µM (≈ 132 µg/mL) | 83.4 µL/min/mg | > 300 µl/min/1x106 cells | 0.05 | 1760 nM |  |  |  |  |  |  |  | CNC(=O)c1csc(C2CCCN2Cc2ccc(C)c(F)c2)n1 (stereo not shown) [4B, 2-(1-(3-fluoro-4-methylbenzyl)pyrrolidin-2-yl)-N-methylthiazole-4-carboxamide] | 66 nM | 228 nM | > 30600 nM |  |  |  | 
2.5 | 172 µM (≈ 50.8 µg/mL) | 8.5 µL/min/mg | 39.5 µl/min/1x106 cells | 0.12 | > 5000 nM |  |  |  |  |  |  |  | O=C(Cc1cccc(F)c1)Nc1[nH]ncc1-c1ccccc1 [2B, 2-(3-fluorophenyl)-N-(4-phenyl-1H-pyrazol-5-yl)acetamide] | 11300 nM | 4370 nM | > 30600 nM |  |  |  | 
3 | 105 µM (≈ 50.6 µg/mL) | 228 µL/min/mg | 28.0 µl/min/1x106 cells | 0.12 | > 5000 nM |  |  |  |  |  |  |  | O=C(Cc1cc(F)cc(F)c1)NCC(=O)NC1C(=O)Nc2ccccc2SC1c1ccccc1 (stereo not shown) [9A, 2-(3,5-difluorophenyl)-N-(2-oxo-2-((4-oxo-2-phenyl-2,3,4,5-tetrahydrobenzo[b][1,4]thiazepin-3-yl)amino)ethyl)acetamide] | 180 nM | 181 nM | > 30600 nM |  |  |  | 
2.7 | 16 µM (≈ 5.84 µg/mL) | > 300 µL/min/mg | > 300 µl/min/1x106 cells | 0.05 | 2700 nM |  |  |  |  |  |  |  | CN(Cc1cccc(Cl)c1)S(=O)(=O)c1ccc2c(c1)C(=O)NCC2 [8A, N-(3-chlorobenzyl)-N-methyl-1-oxo-1,2,3,4-tetrahydroisoquinoline-7-sulfonamide] | 515 nM | 486 nM | > 30600 nM |  |  |  | 
2.7 | 217 µM (≈ 113 µg/mL) | > 300 µL/min/mg | 24.8 µl/min/1x106 cells | 0.23 | ~296 nM |  |  |  |  |  |  |  | Cc1nccc(N2CCC(C(=O)N3CCCN(S(=O)(=O)c4ccc(Br)cc4)CC3)CC2)n1 [1B, (4-((4-bromophenyl)sulfonyl)-1,4-diazepan-1-yl)(1-(2-methylpyrimidin-4-yl)piperidin-4-yl)methanone] | 268 nM | 111 nM | > 30600 nM |  |  |  | 
2.9 | 26 µM (≈ 9.01 µg/mL) | 11.3 µL/min/mg | 55.1 µl/min/1x106 cells | 0.088 | 447 nM | acceptable | very good |  |  |  |  |  | O=C1NCCCc2nc(N3CCN(c4ccccc4F)CC3)sc21 [6A, 2-(4-(2-fluorophenyl)piperazin-1-yl)-5,6,7,8-tetrahydro-4H-thiazolo[5,4-c]azepin-4-one] | 2560 nM | 684 nM | > 30600 nM | lower potency than representatives 4A or 5A |  |  | 
3.8 | 43 µM (≈ 19.7 µg/mL) | > 300 µL/min/mg | 171.6 µl/min/1x106 cells | 0.016 | 2700 nM |  |  |  |  |  |  |  | O=C(NCCCn1ccnc1)NC1C(=O)Nc2ccccc2SC1c1cc(F)ccc1F (stereo not shown) [9B, 1-(3-(1H-imidazol-1-yl)propyl)-3-(2-(2,5-difluorophenyl)-4-oxo-2,3,4,5-tetrahydrobenzo[b][1,4]thiazepin-3-yl)urea] | 483 nM | 475 nM | > 30600 nM |  |  |  | 
2 | 100 µM (≈ 37.9 µg/mL) | < 3 µL/min/mg | < 1 µl/min/1x106 cells | 0.003 | ~1160 nM | good |  | high |  |  |  |  | COc1ccc(C(=O)Nc2ccc(CNC(=O)c3ccnn3C)cc2C)cn1 [7A, 6-methoxy-N-(2-methyl-4-((1-methyl-1H-pyrazole-5-carboxamido)methyl)phenyl)nicotinamide] | 1140 nM | 1270 nM | 23200 nM |  |  |  | 
2.5 | > 1000 µM | 35.5 µL/min/mg | 218.6 µl/min/1x106 cells | 0.2 | ~223 nM |  |  |  |  |  |  |  | CN(CC1CCCC(=O)N1)c1cc(OCc2ccccc2)nc(-c2nccn2C)n1 (stereo not shown) [3B, 6-(((6-(benzyloxy)-2-(1-methyl-1H-imidazol-2-yl)pyrimidin-4-yl)(methyl)amino)methyl)piperidin-2-one] | 645 nM | 510 nM | > 30600 nM |  |  |  | 
 |  |  | 25.0 µl/min/1x106 cells |  |  |  |  |  | 2.3 | 40.7 µL/min/mg | 99.5% | 2220 nM | COCc1ccc(C(=O)Nc2ccc(CNC(=O)c3ccnn3C)cc2C)nc1 [7B, 5-(methoxymethyl)-N-(2-methyl-4-((1-methyl-1H-pyrazole-5-carboxamido)methyl)phenyl) picolinamide] |  |  |  |  | 3070 nM | 2480 nM | > 30600 nM
